Measured values from US20240287139A1, “A NOVEL COMPOUND ACTING AGAINST A SELECT GROUP OF BACTERIA” (priority 2021, published 2024).
Where “and” joins values, the source holds several entries; their conditions need not be identical. Equal entries are not always repeated. *1 amine or outer side, *2 acyl side, *3 side chain or, on linkers, in order; H or OH if unused. Where a SMILES comes first, the peptide text is derived from it. Bridges are numbered along the chain shown (N, C = ends). [ ]: non-standard residue; d: D form. The star is where a group is joined. ξ: configuration not given here. ξThr(3R)(O-yl) = C[C@@H](O[*:3])C(N[*:1])C(=O)[*:2]; βAsp = O=C(O)[C@H](CC(=O)[*:2])N[*:1]; His(π-Me) = Cn1cncc1C[C@H](N)C(=O)O; For = O=C*

Legend:
[1] = system: M. tuberculosis GyrA D94N mutant; assay type: cell-based
[2] = system: M. tuberculosis H37Rv mc^26020
MtbGyrase GyrA mutants = assay type: biochemical, M. tuberculosis
[3] = system: M. tuberculosis bacA mutants (L469P, L470P and S577R; bacA deletion mutant); assay type: cell-based

C[C@H]1OC(=O)C[C@@H](C(=O)O)NC(=O)[C@H](CO)NC(=O)[C@@H](CCCNC(=N)N)NC(=O)CNC(=O)[C@H](Cc2ccccc2)NC(=O)[C@@H](CO)NC(=O)C[C@@H](C(=O)O)NC(=O)[C@H](Cc2cncn2C)NC(=O)C1NC(=O)[C@@H](CCCNC(=N)N)NC(=O)[C@@H](NC(=O)[C@H](Cc1c[nH]c2ccccc12)NC=O)[C@@H](C)O (stereo partly drawn) [compound of Formula IV] (For-WT[dR][ξThr(3R)(O-yl)][His(π-Me)][βAsp][dS]FG[dR]SD-OH; ester 4-12)
MIC [1]: 0.25 mg/L
frequency of highly resistant mutants [2]: 6.1×10^−9 to 1.7×10^−8
frequency of resistant mutants [2]: 7.2×10^−6 to 1.6×10^−5
drug-induced cleavage with MtbGyrAP353L and MtbGyrAA32V (MtbGyrase GyrA mutants): relatively strong resistance
reduced cleavage compared to wildtype MtbGyrase (MtbGyrase GyrA mutants): 5 to 100 fold
MIC against bacA mutants [3]: 8 to 16 mg/L and 8 mg/L
MIC against bacA mutants as multiple of wild-type MIC [3]: 32-64 ×MIC and 32 ×MIC
